From patent US20150031674A1, “SERINE/THREONINE KINASE INHIBITORS” (GENENTECH, INC., priority 2013, published 2015)

target: human recombinant PAK1-KD protein (Homo sapiens, UniProt Q13153); experiment: PAK1-KD (Kinase Domain) IC50 Zlyte Assay (FRET peptide substrate phosphorylation); conditions: Z'-LYTE, Biological Example 1
Sequence (Q13153 270-521 limits assumed): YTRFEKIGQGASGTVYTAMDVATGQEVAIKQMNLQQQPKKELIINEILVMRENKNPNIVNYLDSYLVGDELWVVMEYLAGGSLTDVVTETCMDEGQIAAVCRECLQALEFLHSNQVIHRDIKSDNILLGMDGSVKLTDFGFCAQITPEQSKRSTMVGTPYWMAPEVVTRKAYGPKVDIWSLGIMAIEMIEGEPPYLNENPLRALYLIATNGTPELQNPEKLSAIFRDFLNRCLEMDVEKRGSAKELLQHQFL

| SMILES | Ki [nM] |
| --- | --- |
| Cc1cccc(-c2ccc(-c3cc4cnc(NC(C)C)nc4n(CCN4CCNCC4)c3=O)c(Cl)c2)n1 [Example I-68, 6-(2-Chloro-4-(6-methylpyridin-2-yl)phenyl)-2-(isopropylamino)-8-(2-(piperazin-1-yl)ethyl)pyrido[2,3-d]pyrimidin-7(8H)-one] | 1.6 |
| Cc1cccc(-c2ccc(-c3cc4cnc(NC5COC5)nc4n(CCCC(N)=O)c3=O)c(C)c2)n1 [Example I-71, 4-[6-[2-Methyl-4-(6-methyl-2-pyridyl)phenyl]-2-(oxetan-3-ylamino)-7-oxo-pyrido[2,3-d]pyrimidin-8-yl]butanamide] | 11.3 |
| Cc1cccc(-c2ccc(-c3cc4cnc(N)nc4n(CCCN)c3=O)c(C)c2)n1 [Example I-72, 2-Amino-8-(3-aminopropyl)-6-[2-methyl-4-(6-methyl-2-pyridyl)phenyl]pyrido[2,3-d]pyrimidin-7-one] | 21.1 |
| CCNc1ncc2cc(-c3ccc(-c4cccc(C)n4)cc3C)c(=O)n(CCCCO)c2n1 [Example I-73, 2-(Ethylamino)-8-(4-hydroxybutyl)-6-[2-methyl-4-(6-methyl-2-pyridyl)phenyl]pyrido[2,3-d]pyrimidin-7-one] | 18.9 |
| CCNc1ncc2cc(-c3ccc(-c4cccc(C)n4)cc3C)c(=O)n(CCCC(=O)NC)c2n1 [Example I-74, 4-[2-(Ethylamino)-6-[2-methyl-4-(6-methyl-2-pyridyl)phenyl]-7-oxo-pyrido[2,3-d]pyrimidin-8-yl]-N-methyl-butanamide] | 15.5 |
| CCNc1ncc2cc(-c3ccc(-c4cccc(C)n4)cc3C)c(=O)n(CCOCCN)c2n1 [Example I-76, 8-[2-(2-Aminoethoxy)ethyl]-2-(ethylamino)-6-[2-methyl-4-(6-methyl-2-pyridyl)phenyl]pyrido[2,3-d]pyrimidin-7-one] | 3.3 |
| Cc1cccc(-c2ccc(-c3cc4cnc(NC(C)C)nc4n(CC(=O)N4CCNCC4)c3=O)c(C)c2)n1 [Example I-78, 2-(Isopropylamino)-6-(2-methyl-4-(6-methylpyridin-2-yl)phenyl)-8-(2-oxo-2-(piperazin-1-yl)ethyl)pyrido[2,3-d]pyrimidin-7(8H)-one] | 16 |
| Cc1cccc(-c2ccc(-c3cc4cnc(NC5COC5)nc4n(CCCCO)c3=O)c(C)c2)n1 [Example I-81, 8-(4-Hydroxybutyl)-6-[2-methyl-4-(6-methyl-2-pyridyl)phenyl]-2-(oxetan-3-ylamino)pyrido[2,3-d]pyrimidin-7-one] | 6.5 |
| CNC(=O)CCCn1c(=O)c(-c2ccc(-c3cccc(C)n3)cc2C)cc2cnc(NC3COC3)nc21 [Example I-87, N-methyl-4-[6-[2-methyl-4-(6-methyl-2-pyridyl)phenyl]-2-(oxetan-3-ylamino)-7-oxo-pyrido[2,3-d]pyrimidin-8-yl]butanamide] | 30.5 |
| Cc1cccc(-c2ccc(-c3cc4cnc(NC5COC5)nc4n(CC(=O)N4CCNCC4)c3=O)c(Cl)c2)n1 [Example I-94, 6-[2-Chloro-4-(6-methyl-2-pyridyl)phenyl]-2-(oxetan-3-ylamino)-8-(2-oxo-2-piperazin-1-yl-ethyl)pyrido[2,3-d]pyrimidin-7-one] | 15.9 |
| CNc1ncc2cc(-c3ccc(-c4cccc(C)n4)cc3C)c(=O)n(CC(=O)N3CCNCC3)c2n1 [Example I-95, 2-(Methylamino)-6-[2-methyl-4-(6-methyl-2-pyridyl)phenyl]-8-(2-oxo-2-piperazin-1-yl-ethyl)pyrido[2,3-d]pyrimidin-7-one] | 27.3 |
| CNc1ncc2cc(-c3ccc(-c4cccc(C)n4)cc3Cl)c(=O)n(CCOCCN)c2n1 [Example I-96, 8-[2-(2-Aminoethoxy)ethyl]-[2-chloro-4-(6-methyl-2-pyridyl)phenyl]-2-(methylamino)pyrido[2,3-d]pyrimidin-7-one] | 1.4 |
| CNc1ncc2cc(-c3ccc(-c4cccc(C)n4)cc3C)c(=O)n(CCOCCN)c2n1 [Example I-97, 8-[2-(2-Aminoethoxy)ethyl]-2-(methylamino)-6-[2-methyl-4-(6-methyl-2-pyridyl)phenyl]pyrido[2,3-d]pyrimidin-7-one] | 3.6 |
| Cc1cccc(-c2ccc(-c3cc4cnc(NC5COC5)nc4n(CC(=O)N4CCNCC4)c3=O)c(C)c2)n1 [Example I-106, 6-[2-Methyl-4-(6-methyl-2-pyridyl)phenyl]-2-(oxetan-3-ylamino)-8-(2-oxo-2-piperazin-1-yl-ethyl)pyrido[2,3-d]pyrimidin-7-one] | 54.5 |
| CNc1ncc2cc(-c3ccc(-c4cccc(C)n4)cc3Cl)c(=O)n(CC(=O)N3CCNCC3)c2n1 [Example I-107, 6-[2-Chloro-4-(6-methyl-2-pyridyl)phenyl]-2-(methylamino)-8-(2-oxo-2-piperazin-1-yl-ethyl)pyrido[2,3-d]pyrimidin-7-one] | 14.3 |
| CCNc1ncc2cc(-c3ccc(-c4cncc(C)n4)cc3Cl)c(=O)n(CCOC3CC(N)C3)c2n1 (centres unmarked) [Example I-117, 8-(2-(3-Aminocyclobutoxy)ethyl)-6-(2-chloro-4-(6-methylpyrazin-2-yl)phenyl)-2-(ethylamino)-pyrido[2,3-d]pyrimidin-7(8H)-one] | 3.7 |
| CCNc1ncc2cc(-c3ccc(-c4cccc(C)n4)cc3Cl)c(=O)n(C3COC4(CCNC4)C3)c2n1 (centres unmarked) [Example I-121, 6-[2-Chloro-4-(6-methyl-2-pyridyl)phenyl]-2-(ethylamino)-8-(1-oxa-7-azaspiro[4.4]nonan-3-yl)pyrido[2,3-d]pyrimidin-7-one] | 3.7 |

Further lines, results first:

| Ki [nM] | SMILES |
| --- | --- |
| 103 | CCNc1ncc2cc(-c3ccc(-c4cncc(C)n4)cc3Cl)c(=O)n(CCC(N)=O)c2n1 [Example I-69, 3-[6-[2-chloro-4-(6-methylpyrazin-2-yl)phenyl]-2-(ethylamino)-7-oxo-pyrido[2,3-d]pyrimidin-8-yl]propanamide] |
| 30.7 | CCNc1ncc2cc(-c3ccc(-c4cc(C)cnn4)cc3Cl)c(=O)n(C[C@H]3CC[C@H](N)CC3)c2n1 [Example I-77, 8-(((1R,4R)-4-Aminocyclohexyl)methyl)-6-(2-chloro-4-(5-methylpyridazin-3-yl)phenyl)-2-(ethylamino)pyrido[2,3-d]pyrimidin-7(8H)-one] |
| 104 | CNc1ncc2cc(-c3ccc(-c4cncc(C)n4)cc3Cl)c(=O)n(CC[C@@H](O)CO)c2n1 [Example I-80, 6-(2-Chloro-4-(6-methylpyrazin-2-yl)phenyl)-8-(3,4-dihydroxybutyl)-2-(methylamino)pyrido[2,3-d]pyrimidin-7(8H)-one] |
| 9.6 | CCNc1ncc2cc(-c3ccc(-c4cncc(C)n4)cc3Cl)c(=O)n(C[C@H]3[C@@H]4CNC[C@@H]43)c2n1 [Example I-82, 8-((1R,5S,6R)-3-Azabicyclo[3.1.0]hexan-6-ylmethyl)-6-(2-chloro-4-(6-methylpyrazin-2-yl)phenyl)-2-(ethylamino)pyrido[2,3-d]pyrimidin-7(8H)-one] |
| 107 | CCNc1ncc2cc(-c3ccc(-c4cncc(C)n4)cc3Cl)c(=O)n(CC[C@H](O)CO)c2n1 [Example I-83, (S)-6-(2-Chloro-4-(6-methylpyrazin-2-yl)phenyl)-8-(3,4-dihydroxybutyl)-2-(ethylamino)pyrido[2,3-d]pyrimidin-7(8H)-one] |
| 59.2 | CNc1ncc2cc(-c3ccc(-c4cncc(C)n4)cc3Cl)c(=O)n(CC(=O)N3CCNCC3)c2n1 [Example I-84, 6-(2-Chloro-4-(6-methylpyrazin-2-yl)phenyl)-2-(methylamino)-8-(2-oxo-2-(piperazin-1-yl)ethyl)pyrido[2,3-d]pyrimidin-7(8H)-one] |
| 92.9 | CNc1ncc2cc(-c3ccc(-c4cncc(C)n4)cc3Cl)c(=O)n(CC(=O)NCCO)c2n1 [Example I-85, 2-[6-[2-Chloro-4-(6-methylpyrazin-2-yl)phenyl]-2-(methylamino)-7-oxo-pyrido[2,3-d]pyrimidin-8-yl]-N-(2-hydroxyethyl)acetamide] |
| 123 | CNc1ncc2cc(-c3ccc(-c4cncc(C)n4)cc3Cl)c(=O)n(CC(=O)N(C)C)c2n1 [Example I-86, 2-[6-[2-Chloro-4-(6-methylpyrazin-2-yl)phenyl]-2-(methylamino)-7-oxo-pyrido[2,3-d]pyrimidin-8-yl]-N,N-dimethyl-acetamide] |
| 313 | Cc1cncc(-c2ccc(-c3cc4cnc(N)nc4n(CCCCCN)c3=O)c(Cl)c2)n1 [Example I-88, 2-Amino-8-(5-aminopentyl)-6-[2-chloro-4-(6-methylpyrazin-2-yl)phenyl]pyrido[2,3-d]pyrimidin-7-one] |
| 322 | CCNc1ncc2cc(-c3ccc(-c4cncc(C)n4)cc3Cl)c(=O)n(CCN3CCNCC3=O)c2n1 [Example I-90, 6-[2-Chloro-4-(6-methylpyrazin-2-yl)phenyl]-2-(ethylamino)-8-[2-(2-oxopiperazin-1-yl)ethyl]pyrido[2,3-d]pyrimidin-7-one] |
| 29.1 | CCNc1ncc2cc(-c3ccc(-c4cccc(C)n4)cc3C)c(=O)n(CC(=O)N3CCNCC3)c2n1 [Example I-93, 2-(Ethylamino)-6-[2-methyl-4-(6-methyl-2-pyridyl)phenyl]-8-(2-oxo-2-piperazin-1-yl-ethyl)pyrido[2,3-d]pyrimidin-7-one] |
| 18.5 | Cc1cncc(-c2ccc(-c3cc4cnc(NC(C)C)nc4n(CCC4CCNC4=O)c3=O)c(Cl)c2)n1 (centres unmarked) [Example I-100, 6-[2-Chloro-4-(6-methylpyrazin-2-yl)phenyl]-2-(isopropylamino)-8-[2-(2-oxopyrrolidin-3-yl)ethyl]pyrido[2,3-d]pyrimidin-7-one] |
| 114 | CCNc1ncc2cc(-c3ccc(-c4cncc(C)n4)cc3Cl)c(=O)n(CC3(O)CCN(C)CC3)c2n1 [Example I-105, 6-[2-Chloro-4-(6-methylpyrazin-2-yl)phenyl]-2-(ethylamino)-8-[(4-hydroxy-1-methyl-4-piperidyl)methyl]pyrido[2,3-d]pyrimidin-7-one] |
| 43.3 | CNc1ncc2cc(-c3ccc(-c4cncc(C)n4)cc3Cl)c(=O)n(CCC3CNC(=O)C3)c2n1 (centres unmarked) [Example I-109, 6-[2-Chloro-4-(6-methylpyrazin-2-yl)phenyl]-2-(methylamino)-8-[2-(5-oxopyrrolidin-3-yl)ethyl]pyrido[2,3-d]pyrimidin-7-one] |
| 20.8 | CCNc1ncc2cc(-c3ccc(-c4cccc(C)n4)cc3Cl)c(=O)n(CC(=O)N3CCOCC3)c2n1 [Example I-120, 6-[2-chloro-4-(6-methyl-2-pyridyl)phenyl]-2-(ethylamino)-8-(2-morpholino-2-oxo-ethyl)pyrido[2,3-d]pyrimidin-7-one] |
